In patent publication US10874743B2, “IRAK degraders and uses thereof” (Kymera Therapeutics, Inc., priority 2017, dated 2020):

Assays:
IRAK4 [1] = target: T1, IRAK4 (Homo sapiens, UniProt Q9NWZ3); assay: OCI-LY-10 degradation assay (western blot, % IRAK4 degraded after 4 hours); type: cell-based; set-up: endogenous in cells; host or cells: OCI-LY10; conditions: OCI-LY10 cells, 4 hours; for OCI-LY10 % IRAK4 Degradation (0.01 uM): 0.01 uM compound; for OCI-LY10 % IRAK4 Degradation (0.1 uM): 0.1 uM compound; for OCI-LY10 % IRAK4 Degradation (1 uM): 1 uM compound
T1 sequence (Q9NWZ3 1-460): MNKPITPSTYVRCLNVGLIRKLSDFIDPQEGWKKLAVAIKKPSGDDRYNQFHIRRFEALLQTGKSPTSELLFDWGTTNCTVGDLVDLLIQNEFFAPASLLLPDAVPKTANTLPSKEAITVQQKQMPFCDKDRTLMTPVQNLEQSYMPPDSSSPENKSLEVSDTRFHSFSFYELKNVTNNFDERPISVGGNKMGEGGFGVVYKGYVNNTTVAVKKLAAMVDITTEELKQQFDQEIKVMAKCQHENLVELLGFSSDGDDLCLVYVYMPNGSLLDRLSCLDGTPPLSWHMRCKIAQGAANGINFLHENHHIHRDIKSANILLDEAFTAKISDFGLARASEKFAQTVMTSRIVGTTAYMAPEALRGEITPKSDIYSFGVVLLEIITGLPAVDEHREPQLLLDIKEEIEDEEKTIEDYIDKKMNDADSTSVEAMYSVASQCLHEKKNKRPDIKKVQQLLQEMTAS
Method in brief: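 IRAK4 loss after 4 h at 37° C was scored A (>50%), B (>20-50%) or C (<20%) from infrared western blots of RIPA lysates, 20-25 μg protein per lane. Compound was applied at 0.003-10 μM final to OCI-LY10 cells cultured in RPMI-1640 with 20% FBS and 55 μM 2-ME.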

IRAK4 [2] = target: T1, IRAK4; assay: OCI-LY-10 MSD assay for IRAK4 DC50; type: cell-based; set-up: endogenous in cells; host or cells: OCI-LY10; conditions: OCI-LY10 cells, 4 hr incubation, concentration required to degrade 50% of protein
Method in brief: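 IRAK4 level was quantified by MSD electrochemiluminescence (anti-IRAK4 capture antibody, rabbit anti-IRAK4 detection antibody) in RIPA lysates of OCI-Ly10 cells. Cells had been treated with compound for 4 hr (8-point, 3-fold serial dilution). Remaining protein versus concentration was fitted to a sigmoidal curve to give DC50.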

SMILES | OCI-LY10 % IRAK4 Degradation (0.01 uM) (IRAK4 [1]) | OCI-LY10 % IRAK4 Degradation (0.1 uM) (IRAK4 [1]) | OCI-LY10 % IRAK4 Degradation (1 uM) (IRAK4 [1]) | DC50 (IRAK4 [2]) [nM]
O=C1CCC(N2C(=O)c3cccc(NC4CCN(CCOCCOCCNC(=O)c5ccc(-n6cc(NC(=O)c7coc(-c8ccnc(NCC(F)(F)F)c8)n7)c(C(F)F)n6)cc5)CC4)c3C2=O)C(=O)N1 (centres unmarked) [I-283] | A (>50% degradation) | A (>50% degradation) | A (>50% degradation) | < 50
CC(C)(C)[C@H](NC(=O)COCCOCCOCCNc1cccc2c1C(=O)N(C1CCC(=O)NC1=O)C2=O)C(=O)N1C[C@H](O)C[C@H]1C(=O)NCc1ccc(-n2cc(NC(=O)c3coc(-c4ccnc(NCC5CC5)c4)n3)c(C(F)F)n2)cc1 (some centres unmarked) [I-284] | C (<20% degradation) | C (<20% degradation) | C (<20% degradation) | > 1000
O=C1CCC(N2C(=O)c3cccc(NCCOCCOCCOCC(=O)N4C[C@H](O)C[C@H]4C(=O)NCc4ccc(-n5cc(NC(=O)c6coc(-c7ccnc(NCC8CC8)c7)n6)c(C(F)F)n5)cc4)c3C2=O)C(=O)N1 (some centres unmarked) [I-287] | C (<20% degradation) | C (<20% degradation) | B (>20-50% degradation) | > 1000
CC(=O)O[C@@H]1C[C@@H](C(=O)NCc2ccc(-n3cc(NC(=O)c4coc(-c5ccnc(NCC6CC6)c5)n4)c(C(F)F)n3)cc2)N(C(=O)COCCOCCOCCNc2cccc3c2C(=O)N(C2CCC(=O)NC2=O)C3=O)C1 (some centres unmarked) [I-288] | C (<20% degradation) | C (<20% degradation) | A (>50% degradation) | 50 to 100
NC(=O)c1nn(-c2ccc(C(=O)NCCOCCOCCN3CCC(Nc4cccc5c4C(=O)N(C4CCC(=O)NC4=O)C5=O)CC3)cc2)cc1NC(=O)c1coc(-c2ccnc(NCC3CC3)c2)n1 (centres unmarked) [I-290] | B (>20-50% degradation) | B (>20-50% degradation) | B (>20-50% degradation) | > 1000
Cn1cc(NC(=O)c2coc(-c3ccnc(NCC(F)(F)F)c3)n2)c(C(=O)NCCCOCC(C)(C)COCCCc2cccc3c2n(C)c(=O)n3C2CCC(=O)NC2=O)n1 (centres unmarked) [I-297] | C (<20% degradation) | C (<20% degradation) | C (<20% degradation) | > 1000
NC(=O)c1nn(-c2ccc(COCC3CN(CCOCCNc4cccc5c4C(=O)N(C4CCC(=O)NC4=O)C5=O)CCO3)cc2)cc1NC(=O)c1coc(-c2ccnc(NCC(F)(F)F)c2)n1 (centres unmarked) [I-302, N-[3-carbamoyl-1-[4-[[4-[2-[2-[[2-(2,6-dioxo-3-piperidyl)-1,3-dioxo-isoindolin-4-yl]amino]ethoxy]ethyl]morpholin-2-yl]methoxymethyl]phenyl]pyrazol-4-yl]-2-[2-(2,2,2-trifluoroethylamino)-4-pyridyl]oxazole-4-carboxamide] | B (>20-50% degradation) | A (>50% degradation) | A (>50% degradation) | < 50
NC(=O)c1nn(-c2ccc(CNCC3CN(CCOCCNc4cccc5c4C(=O)N(C4CCC(=O)NC4=O)C5=O)CCO3)cc2)cc1NC(=O)c1coc(-c2ccnc(NCC(F)(F)F)c2)n1 (centres unmarked) [I-305, N-[3-carbamoyl-1-[4-[[[4-[2-[2-[[2-(2,6-dioxo-3-piperidyl)-1,3-dioxo-isoindolin-4-yl]amino]ethoxy]ethyl]morpholin-2-yl]methylamino]methyl]phenyl]pyrazol-4-yl]-2-[2-(2,2,2-trifluoroethylamino)-4-pyridyl]oxazole-4-carboxamide] | A (>50% degradation) | A (>50% degradation) | A (>50% degradation) | < 50
CN(CCOCCOCCCc1ccc2c(c1)C(=O)N(C1CCC(=O)NC1=O)C2=O)Cc1ccc(-n2cc(NC(=O)c3coc(-c4ccnc(NCC5CC5)c4)n3)c(C(N)=O)n2)cc1 (centres unmarked) [I-308] | B (>20-50% degradation) | A (>50% degradation) | A (>50% degradation) | 50 to 100
NC(=O)c1nn(-c2ccc(CNCCOCCOCCn3c(=O)n(C4CCC(=O)NC4=O)c4ccccc43)cc2)cc1NC(=O)c1coc(-c2ccnc(NCC3CC3)c2)n1 (centres unmarked) [I-319] | B (>20-50% degradation) | A (>50% degradation) | A (>50% degradation) | < 50
NC(=O)c1nn(-c2ccc(CNCCOCCCc3cccc4c3C(=O)N(C3CCC(=O)NC3=O)C4=O)cc2)cc1NC(=O)c1coc(-c2ccnc(NCC(F)(F)F)c2)n1 (centres unmarked) [I-320] | C (<20% degradation) | B (>20-50% degradation) | B (>20-50% degradation) | > 1000
